Data set [1] concerns the target T1, Amine oxidase [flavin-containing] A (Homo sapiens, UniProt P21397).
T1 sequence (P21397 whole entry): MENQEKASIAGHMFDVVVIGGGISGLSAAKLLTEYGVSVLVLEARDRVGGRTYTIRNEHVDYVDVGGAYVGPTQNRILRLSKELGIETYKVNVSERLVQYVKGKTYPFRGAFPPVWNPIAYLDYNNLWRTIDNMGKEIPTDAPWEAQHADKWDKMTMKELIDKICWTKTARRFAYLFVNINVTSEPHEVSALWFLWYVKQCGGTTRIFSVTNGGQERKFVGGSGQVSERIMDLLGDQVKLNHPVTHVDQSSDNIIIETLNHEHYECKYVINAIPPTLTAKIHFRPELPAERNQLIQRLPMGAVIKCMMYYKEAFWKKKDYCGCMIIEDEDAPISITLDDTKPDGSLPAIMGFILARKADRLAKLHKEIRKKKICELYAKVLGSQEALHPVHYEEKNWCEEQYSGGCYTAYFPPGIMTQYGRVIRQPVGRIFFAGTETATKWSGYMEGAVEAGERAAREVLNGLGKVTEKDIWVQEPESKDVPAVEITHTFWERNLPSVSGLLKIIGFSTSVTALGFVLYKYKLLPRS
Nature of the data set: Competitive inhibition of recombinant human MAO-A using varying levels of kynuramine substrate after 5 mins by Lineweaver-Burk plot analysis.

In data set [2] the target is T1, Amine oxidase [flavin-containing] A. Nature of the data set: Inhibition of recombinant human liver MAO-A expressed in yeast using kynuramine as substrate preincubated for 3 mins followed by substrate addition by double reciprocal plot analysis.
Data set [3] concerns the target T2, Amine oxidase [flavin-containing] B (Homo sapiens, UniProt P27338).
T2 sequence (P27338 whole entry): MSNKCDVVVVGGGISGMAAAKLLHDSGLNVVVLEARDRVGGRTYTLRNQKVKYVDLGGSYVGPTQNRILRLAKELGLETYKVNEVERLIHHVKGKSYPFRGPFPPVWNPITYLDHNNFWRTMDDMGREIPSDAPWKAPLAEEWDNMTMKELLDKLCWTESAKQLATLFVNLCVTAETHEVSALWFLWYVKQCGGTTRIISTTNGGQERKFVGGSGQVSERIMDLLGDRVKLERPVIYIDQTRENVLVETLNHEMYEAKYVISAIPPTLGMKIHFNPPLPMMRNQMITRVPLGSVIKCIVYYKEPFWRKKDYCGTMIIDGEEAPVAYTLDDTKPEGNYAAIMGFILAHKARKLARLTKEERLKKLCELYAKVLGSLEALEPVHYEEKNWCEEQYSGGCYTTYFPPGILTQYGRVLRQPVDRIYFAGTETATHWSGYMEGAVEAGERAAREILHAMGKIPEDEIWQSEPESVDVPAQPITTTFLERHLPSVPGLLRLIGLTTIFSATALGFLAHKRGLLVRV
Nature of the data set: Inhibition of recombinant human MAO-B using benzylamine as substrate preincubated for 15 mins.

Data set [4] concerns the target T1, Amine oxidase [flavin-containing] A. Nature of the data set: Inhibition of recombinant human MAO-A using kynuramine as substrate incubated for 10 mins.
Data set [5] has the same target. Nature of the data set: Irreversible inhibition of recombinant human MAO-A using kynuramine as substrate assessed as residual activity at 100 times IC50 preincubated for 10 mins followed by 100 times compound dilution.
For data set [6] the target is unchanged. Description: Time-dependent inhibition of recombinant human MAO-A preincubated up to 30 mins followed by addition of 0.2 mM of kynuramine as substrate.
For data set [7] the target is unchanged. Nature of the data set: Inhibition of recombinant human MAO-A assessed as residual activity at 5 uM using 0.4 mM of kynuramine as substrate after 10 mins. Particulars: read-out: Activity; call rule not given here.
Data set [8] has the same target. Description: Reversible inhibition of recombinant human MAO-A assessed as residual activity at 5 uM preincubated for 10 mins in presence of kynuramine substrate followed by re-addition of 0.2 mM of substrate measured after 10 mins. The conditions noted are these: read-out: Activity.
Data set [9] has as its target T2, Amine oxidase [flavin-containing] B. Nature of the data set: Inhibition of recombinant human MAO-B using benzylamine as substrate at 40 uM after 15 mins relative to control. The conditions noted are these: 0.25 h.
The target in data set [10] is T1, Amine oxidase [flavin-containing] A. Nature of the data set: Reversible inhibition of recombinant human MAO-A using kynuramine as substrate assessed as residual activity at 100 times IC50 preincubated for 10 mins followed by 100 times compound dilution.
Data set [11] has the same target. Description: Inhibition of recombinant human MAO-A assessed as residual activity at 5 uM using 0.2 mM kynuramine as substrate incubated for 10 mins. Particulars: read-out: Activity.
The target is the same in data set [12]. Description: Competitive inhibition of recombinant human MAO-A using 0.01 to 0.5 mM kynuramine substrate by Lineweaver-Burk plot analysis.

One may read the Ki as the equilibrium dissociation constant of an inhibitor or competing ligand from its target. Regarding `CNc1ccccc1-c1nc(C(=O)OC)cs1`, the Ki in data set [1] stood at 1840 nM.

With `Cn1ccc2c3ccccc3nc-2c1`, in data set [2], the Ki turned out to be 1430 nM.

As a reminder, the IC50 is the concentration that gives 50% inhibition. As for `O=C1c2ccccc2C(=O)c2c1ccc(O)c2O` [ATHRAQUINONES A], the IC50 was more than 60000 nM in [3] and 30100 nM in [4].

Take `C#CCN(C)CCCOc1ccc(Cl)cc1Cl` [CLORGILINE]: the Activity in data set [5] lay within 24.9 to 47.9%.

What is called inhibition is the share of the control response that was lost under treatment. With `O=C1c2ccccc2C(=O)c2c(O)c(O)cc(O)c21` [PURPURIN], the TDI result in data set [6] is listed as “Active”. For the same molecule, the values for the activity at 5 µM in data set [7], in [8] and in [11] were 54.4%, 55.2% and 36.6%, respectively. Moreover, the IC50 in [3] is more than 40000 nM; in [4] it was 2500 nM. In addition, the inhibition at 40 µM in data set [9] stood at 23.3%. Besides, the Activity in data set [10] lay within 63.9 to 67.2%. Further, the Ki in [12] was determined as 422 nM.

For the origin of these results see ChEMBL document CHEMBL3997813, “Selective inhibition of monoamine oxidase A by purpurin, an anthraquinone” (Bioorg Med Chem Lett, 2017).
